Key:
Experiment in all cases: Standardized radiometric kinase assays, percentage of activity at 0.5 μM;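 note: Read-out is ³³P-labelled substrate protein phosphorylated by each kinase, captured on filters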
[1] = target: each individual kinase of the panel (Homo sapiens, UniProt O60285); conditions: for % Activity: ARK5(h)
[2] = target: each individual kinase of the panel (Homo sapiens, UniProt P07949); conditions: for % Activity: Ret(h)
[3] = system: each individual kinase of the panel; conditions: for % Activity: MAPK1(h)
[4] = target: each individual kinase of the panel (Homo sapiens, UniProt P17252); conditions: for % Activity: PKCα(h)
[5] = target: each individual kinase of the panel (Homo sapiens, UniProt O43318); conditions: for % Activity: TAK1(h)
[6] = target: each individual kinase of the panel (Homo sapiens, UniProt Q06418); conditions: for % Activity: Rse(h)
[7] = target: each individual kinase of the panel (Homo sapiens, UniProt Q96SB4); conditions: for % Activity: SRPK1(h)
[8] = target: each individual kinase of the panel (Homo sapiens, UniProt P19784); conditions: for % Activity: CK2α2(h)
[9] = target: each individual kinase of the panel (Homo sapiens, UniProt Q9HCP0); conditions: for % Activity: CK1γ1(h)
[10] = target: each individual kinase of the panel (Homo sapiens, UniProt Q8IW41); conditions: for % Activity: PRAK(h)
[11] = target: each individual kinase of the panel (Homo sapiens, UniProt Q9HBH9); conditions: for % Activity: Mnk2(h)
[12] = target: each individual kinase of the panel (Homo sapiens, UniProt Q13043); conditions: for % Activity: MST1(h)
[13] = target: each individual kinase of the panel (Homo sapiens, UniProt P10721, V560G); conditions: for % Activity: cKit(V560G)(h)
[14] = target: each individual kinase of the panel (Homo sapiens, UniProt Q9NWZ3); conditions: for % Activity: IRAK4(h)
[15] = target: each individual kinase of the panel (Homo sapiens, UniProt P06241); conditions: for % Activity: Fyn(h)
[16] = target: each individual kinase of the panel (Homo sapiens, UniProt P35916); conditions: for % Activity: Flt4(h)
[17] = target: each individual kinase of the panel (Homo sapiens, UniProt Q9Y6M4); conditions: for % Activity: CK1γ3(h)
[18] = target: each individual kinase of the panel (Homo sapiens, UniProt Q14012); conditions: for % Activity: CaMKI(h)
[19] = target: each individual kinase of the panel (Homo sapiens, UniProt Q05397); conditions: for % Activity: FAK(h)
[20] = target: each individual kinase of the panel (Homo sapiens, UniProt P78368); conditions: for % Activity: CK1γ2(h)
[21] = target: each individual kinase of the panel (Homo sapiens, UniProt P17948); conditions: for % Activity: Flt1(h)
[22] = target: each individual kinase of the panel (Homo sapiens, UniProt P24941); conditions: for % Activity: CDK2/cyclinA(h)
[23] = target: each individual kinase of the panel (Homo sapiens, UniProt Q14680); conditions: for % Activity: MELK(h)
[24] = target: each individual kinase of the panel (Homo sapiens, UniProt Q15349); conditions: Rsk3(h)
[25] = target: each individual kinase of the panel (Homo sapiens, UniProt P11362); conditions: for % Activity: FGFR1(h)
[26] = target: each individual kinase of the panel (Homo sapiens, UniProt P80192); conditions: for % Activity: MLK1(h)
[27] = target: each individual kinase of the panel (Homo sapiens, UniProt Q9H4B4)
[28] = target: each individual kinase of the panel (Homo sapiens, UniProt P49137)
[29] = target: each individual kinase of the panel (Homo sapiens, UniProt P41240)

Chain of each individual kinase of the panel (Homo sapiens, UniProt Q06418) (Q06418 41-890 limits assumed): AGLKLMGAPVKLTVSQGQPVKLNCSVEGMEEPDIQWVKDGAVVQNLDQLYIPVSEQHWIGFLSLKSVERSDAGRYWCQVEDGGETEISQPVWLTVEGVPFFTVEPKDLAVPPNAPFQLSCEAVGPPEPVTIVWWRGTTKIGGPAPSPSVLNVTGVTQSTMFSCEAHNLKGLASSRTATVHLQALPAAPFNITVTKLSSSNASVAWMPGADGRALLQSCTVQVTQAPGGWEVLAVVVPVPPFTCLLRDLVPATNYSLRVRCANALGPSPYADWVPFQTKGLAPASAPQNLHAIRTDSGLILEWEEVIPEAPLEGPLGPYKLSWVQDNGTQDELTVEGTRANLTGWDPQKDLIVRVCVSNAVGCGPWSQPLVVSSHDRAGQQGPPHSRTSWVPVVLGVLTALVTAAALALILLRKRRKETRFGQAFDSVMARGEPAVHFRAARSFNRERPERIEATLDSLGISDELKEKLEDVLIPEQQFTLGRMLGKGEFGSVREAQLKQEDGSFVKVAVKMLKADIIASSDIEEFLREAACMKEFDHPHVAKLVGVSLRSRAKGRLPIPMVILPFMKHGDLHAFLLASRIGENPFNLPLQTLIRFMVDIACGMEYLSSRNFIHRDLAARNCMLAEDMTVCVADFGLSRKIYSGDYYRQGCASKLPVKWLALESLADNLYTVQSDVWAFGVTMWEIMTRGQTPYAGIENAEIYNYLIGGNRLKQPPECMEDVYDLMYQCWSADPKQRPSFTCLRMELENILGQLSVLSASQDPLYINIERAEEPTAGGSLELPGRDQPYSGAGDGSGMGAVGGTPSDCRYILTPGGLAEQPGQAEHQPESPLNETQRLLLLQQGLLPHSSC
Chain of each individual kinase of the panel (Homo sapiens, UniProt P10721, V560G) (P10721 26-976 V560G limits assumed): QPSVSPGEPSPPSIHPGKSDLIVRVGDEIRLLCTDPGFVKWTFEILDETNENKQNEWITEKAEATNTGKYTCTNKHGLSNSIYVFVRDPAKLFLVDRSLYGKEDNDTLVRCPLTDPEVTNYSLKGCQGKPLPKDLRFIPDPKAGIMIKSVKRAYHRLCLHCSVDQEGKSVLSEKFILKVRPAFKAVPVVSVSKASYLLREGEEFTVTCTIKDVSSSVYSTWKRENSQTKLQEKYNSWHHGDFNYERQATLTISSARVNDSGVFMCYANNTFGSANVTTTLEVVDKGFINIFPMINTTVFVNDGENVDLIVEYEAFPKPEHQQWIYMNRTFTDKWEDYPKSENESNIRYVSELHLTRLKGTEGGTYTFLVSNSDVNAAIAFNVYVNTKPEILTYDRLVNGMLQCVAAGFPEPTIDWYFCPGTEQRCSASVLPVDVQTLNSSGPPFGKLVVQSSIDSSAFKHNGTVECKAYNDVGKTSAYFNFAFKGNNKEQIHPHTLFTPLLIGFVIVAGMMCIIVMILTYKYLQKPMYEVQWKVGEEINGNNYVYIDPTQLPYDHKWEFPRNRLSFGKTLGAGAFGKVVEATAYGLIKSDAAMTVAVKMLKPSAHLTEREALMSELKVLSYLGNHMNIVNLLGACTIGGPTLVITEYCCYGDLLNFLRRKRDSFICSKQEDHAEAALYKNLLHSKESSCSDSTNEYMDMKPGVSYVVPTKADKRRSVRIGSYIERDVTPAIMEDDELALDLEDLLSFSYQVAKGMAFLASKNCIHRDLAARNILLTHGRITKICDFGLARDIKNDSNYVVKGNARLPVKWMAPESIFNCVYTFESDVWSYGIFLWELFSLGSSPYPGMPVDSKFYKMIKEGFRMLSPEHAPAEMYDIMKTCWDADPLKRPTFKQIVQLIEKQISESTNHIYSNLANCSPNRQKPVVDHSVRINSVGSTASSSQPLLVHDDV
Chain of each individual kinase of the panel (Homo sapiens, UniProt P06241) (P06241 2-537 limits assumed): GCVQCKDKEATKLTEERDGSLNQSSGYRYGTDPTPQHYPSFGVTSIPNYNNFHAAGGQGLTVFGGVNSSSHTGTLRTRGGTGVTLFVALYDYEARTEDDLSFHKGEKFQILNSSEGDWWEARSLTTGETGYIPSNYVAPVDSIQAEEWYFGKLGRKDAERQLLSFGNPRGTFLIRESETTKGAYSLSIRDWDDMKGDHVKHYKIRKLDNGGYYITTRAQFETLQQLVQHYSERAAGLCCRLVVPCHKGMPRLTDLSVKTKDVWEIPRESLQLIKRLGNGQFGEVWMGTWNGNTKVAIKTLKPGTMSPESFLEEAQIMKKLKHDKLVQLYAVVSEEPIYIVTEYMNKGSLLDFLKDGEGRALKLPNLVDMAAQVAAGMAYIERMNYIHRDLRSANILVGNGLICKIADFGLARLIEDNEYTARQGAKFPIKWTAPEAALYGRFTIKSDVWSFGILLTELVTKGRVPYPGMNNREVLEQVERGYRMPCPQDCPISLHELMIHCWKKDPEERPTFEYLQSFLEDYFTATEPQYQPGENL
Chain of each individual kinase of the panel (Homo sapiens, UniProt Q05397) (Q05397 2-1052 limits assumed): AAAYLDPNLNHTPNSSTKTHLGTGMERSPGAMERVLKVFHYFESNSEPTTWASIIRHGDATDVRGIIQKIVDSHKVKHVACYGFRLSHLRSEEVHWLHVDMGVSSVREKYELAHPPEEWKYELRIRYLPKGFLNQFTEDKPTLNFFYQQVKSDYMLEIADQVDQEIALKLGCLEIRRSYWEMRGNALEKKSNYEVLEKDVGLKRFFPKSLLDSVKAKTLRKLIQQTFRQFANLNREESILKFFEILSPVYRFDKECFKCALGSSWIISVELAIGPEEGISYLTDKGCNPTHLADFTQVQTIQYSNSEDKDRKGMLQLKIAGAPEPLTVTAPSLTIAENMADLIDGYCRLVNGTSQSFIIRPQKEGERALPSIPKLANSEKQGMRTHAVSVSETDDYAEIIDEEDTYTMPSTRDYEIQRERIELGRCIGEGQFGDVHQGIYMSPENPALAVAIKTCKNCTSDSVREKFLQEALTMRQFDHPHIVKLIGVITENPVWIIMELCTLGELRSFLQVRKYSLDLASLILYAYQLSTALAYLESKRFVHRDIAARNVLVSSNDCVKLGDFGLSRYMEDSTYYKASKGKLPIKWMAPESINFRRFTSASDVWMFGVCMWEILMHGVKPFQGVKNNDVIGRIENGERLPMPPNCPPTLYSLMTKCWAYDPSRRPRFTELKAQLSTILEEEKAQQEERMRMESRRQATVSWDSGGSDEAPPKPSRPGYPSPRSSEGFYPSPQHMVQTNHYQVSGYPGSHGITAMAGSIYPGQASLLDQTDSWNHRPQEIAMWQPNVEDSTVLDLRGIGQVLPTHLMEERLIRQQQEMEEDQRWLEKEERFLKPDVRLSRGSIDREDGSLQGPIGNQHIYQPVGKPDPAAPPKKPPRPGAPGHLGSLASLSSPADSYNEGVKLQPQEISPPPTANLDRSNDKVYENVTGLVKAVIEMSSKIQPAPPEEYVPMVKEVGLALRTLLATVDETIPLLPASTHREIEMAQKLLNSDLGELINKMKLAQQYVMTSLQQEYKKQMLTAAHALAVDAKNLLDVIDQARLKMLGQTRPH
Chain of each individual kinase of the panel (Homo sapiens, UniProt P35916) (P35916 25-1363 limits assumed): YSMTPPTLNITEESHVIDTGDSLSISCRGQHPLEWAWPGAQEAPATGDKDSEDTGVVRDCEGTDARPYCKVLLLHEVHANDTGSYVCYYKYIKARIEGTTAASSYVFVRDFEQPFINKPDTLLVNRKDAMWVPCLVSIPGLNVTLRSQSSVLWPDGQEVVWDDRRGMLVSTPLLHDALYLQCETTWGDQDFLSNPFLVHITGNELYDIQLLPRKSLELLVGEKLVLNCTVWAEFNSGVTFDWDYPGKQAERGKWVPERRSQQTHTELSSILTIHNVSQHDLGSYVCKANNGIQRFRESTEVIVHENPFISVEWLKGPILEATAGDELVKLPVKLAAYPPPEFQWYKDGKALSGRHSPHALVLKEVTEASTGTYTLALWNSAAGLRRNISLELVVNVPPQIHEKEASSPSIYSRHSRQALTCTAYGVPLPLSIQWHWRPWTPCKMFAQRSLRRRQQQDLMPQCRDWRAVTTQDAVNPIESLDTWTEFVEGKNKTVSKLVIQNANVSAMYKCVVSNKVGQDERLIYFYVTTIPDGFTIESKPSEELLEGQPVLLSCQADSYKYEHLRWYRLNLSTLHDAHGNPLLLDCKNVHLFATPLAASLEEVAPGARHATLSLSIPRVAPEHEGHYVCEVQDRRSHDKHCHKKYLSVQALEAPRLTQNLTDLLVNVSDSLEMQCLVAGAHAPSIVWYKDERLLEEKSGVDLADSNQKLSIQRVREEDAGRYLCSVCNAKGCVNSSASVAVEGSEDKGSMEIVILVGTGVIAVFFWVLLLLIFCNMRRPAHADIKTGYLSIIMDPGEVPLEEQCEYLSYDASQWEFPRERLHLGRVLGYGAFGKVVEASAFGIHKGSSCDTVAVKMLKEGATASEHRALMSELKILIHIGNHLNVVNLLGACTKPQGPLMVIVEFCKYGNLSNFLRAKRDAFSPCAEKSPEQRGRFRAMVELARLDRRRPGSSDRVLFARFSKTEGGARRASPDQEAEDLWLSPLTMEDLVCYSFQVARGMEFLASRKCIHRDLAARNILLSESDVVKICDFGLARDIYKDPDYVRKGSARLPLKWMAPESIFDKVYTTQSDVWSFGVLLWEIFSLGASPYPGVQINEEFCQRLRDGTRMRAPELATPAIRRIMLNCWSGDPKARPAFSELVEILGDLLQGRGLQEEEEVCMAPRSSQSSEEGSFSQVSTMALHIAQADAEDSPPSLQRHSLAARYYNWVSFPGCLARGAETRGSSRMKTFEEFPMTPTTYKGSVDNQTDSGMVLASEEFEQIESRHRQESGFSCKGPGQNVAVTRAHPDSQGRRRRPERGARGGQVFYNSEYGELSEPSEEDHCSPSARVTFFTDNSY

Clc1ccccc1Nc1nc2c(-c3nnc[nH]3)cccc2c2cnccc12 [A]
% Activity [1]: 39% | % Activity [2]: 43% | % Activity [3]: 77% | % Activity [4]: 99% | % Activity [5]: 28% | % Activity [6]: 109% | % Activity [7]: 107% | % Activity [8]: 73% | % Activity [9]: 30% | % Activity [10]: 97% | % Activity [11]: 54% | % Activity [12]: 44% | % Activity [13]: 38% | % Activity [14]: 12% | % Activity [15]: 49% | % Activity [16]: 17% | % Activity [17]: 21% | % Activity [18]: 90% | % Activity [19]: 30% | % Activity [20]: 17% | % Activity [21]: 62% | % Activity [22]: 31% | % Activity [23]: 13% | % Activity [24]: 7% | % Activity [25]: 100% | % Activity [26]: 24%

NC(=O)c1cccc2c1nc(Nc1cccc(Cl)c1)c1ccncc12 [B]
% Activity [1]: 98% | % Activity [2]: 73% | % Activity ([27]; Plk3(h)): 102% | % Activity [3]: 86% | % Activity ([28]; MAPKAP-K2(h)): 104% | % Activity [4]: 97% | % Activity [5]: 79% | % Activity [6]: 87% | % Activity [7]: 91% | % Activity [8]: 51% | % Activity [9]: 71% | % Activity [10]: 84% | % Activity [11]: 33% | % Activity [12]: 80% | % Activity [13]: 33% | % Activity [14]: 81% | % Activity [15]: 49% | % Activity [16]: 41% | % Activity [17]: 38% | % Activity [18]: 62% | % Activity [19]: 106% | % Activity [20]: 63% | % Activity [21]: 66% | % Activity [22]: 17% | % Activity [23]: 14% | % Activity [24]: 40% | % Activity [25]: 93% | % Activity [26]: 77%

C#Cc1cccc(Nc2nc3cc(C(=O)O)ccc3c3cncnc23)c1 [drawing 1135]
ARK5 percentage of activity [1]: −8% | RET percentage of activity [2]: 14% | PLK3 percentage of activity [27]: −6% | CSK percentage of activity [29]: −46% | MLCK percentage of activity [3]: −3% | PDGFRB (V561D) percentage of activity [3]: −4% | PRKCB2 percentage of activity [3]: 1% | MAPKAPK2 percentage of activity [28]: −7% | PRKCA percentage of activity [4]: 1% | TAK1 percentage of activity [5]: −1% | TYRO3 percentage of activity [6]: −9% | SRPK1 percentage of activity [7]: 34% | CK1 gamma 1 percentage of activity [9]: −5% | MAPKAPK5 percentage of activity [10]: 7% | MST1 percentage of activity [12]: 4% | cKit(V560G) percentage of activity [13]: −11% | IRAK4 percentage of activity [14]: −19% | FYN percentage of activity [15]: −14% | FLT4 percentage of activity [16]: 101% | CK1 gamma 3 percentage of activity [17]: 0% | CAMK1 percentage of activity [18]: −4% | FAK percentage of activity [19]: 3% | CK1 gamma 2 percentage of activity [20]: −7% | FLT1 percentage of activity [21]: 5% | CDK2/cyclinE percentage of activity [22]: −13% | MELK percentage of activity [23]: 51% | FGFR1 percentage of activity [25]: −3% | MLK1 percentage of activity [26]: 20%

NC(=O)c1ccc2c(c1)nc(Nc1cccc(Cl)c1)c1ccncc12 [drawing 1138]
ARK5 percentage of activity [1]: 5% | PLK3 percentage of activity [27]: 0% | CSK percentage of activity [29]: 14% | MAPKAPK2 percentage of activity [28]: −2% | PRKCA percentage of activity [4]: 1% | TAK1 percentage of activity [5]: 12% | TYRO3 percentage of activity [6]: 2% | SRPK1 percentage of activity [7]: 7% | CK2 alpha 2 percentage of activity [8]: 96% | CK1 gamma 1 percentage of activity [9]: 7% | MAPKAPK5 percentage of activity [10]: 22% | Mnk2 percentage of activity [11]: 32% | MST1 percentage of activity [12]: 15% | cKit(V560G) percentage of activity [13]: 75% | IRAK4 percentage of activity [14]: 12% | FYN percentage of activity [15]: 32% | FLT4 percentage of activity [16]: 40% | CK1 gamma 3 percentage of activity [17]: −5% | CAMK1 percentage of activity [18]: 4% | FAK percentage of activity [19]: 4% | CK1 gamma 2 percentage of activity [20]: −5% | FLT1 percentage of activity [21]: 19% | CDK2/cyclin A percentage of activity [22]: 53% | MELK percentage of activity [23]: 73% | FGFR1 percentage of activity [25]: 17% | MLK1 percentage of activity [26]: 49%

From patent US8168651B2, “Protein kinase modulators” (Cylene Pharmaceuticals, Inc., priority 2008, dated 2012)
